Each structure is given as a SMILES string. Like-named read-outs stand apart in the source and are kept apart here.

One assay concerns the target Wheat HPPD (Triticum aestivum, UniProt A0A3B6NLC6). In words: Dissociation of enzyme/inhibitor complexes by exchange with 14C-labelled inhibitor (koff; Kd = koff/kon). In kind it is binding. As to conditions: for koff: − glycerol. The text has this: (§1) Herbicidal inhibitors of HPPD are found here to have generally low values of koff (in the range less than 0.0003 s^−1, often less than 0.000001 s^−1). It will be appreciated that many suitable methods known in the art for determining such low koff values are suitable for working the current invention. These include measuring rates of exchange of radio or otherwise labelled inhibitors either with or away from the enzyme inhibitor complex. For example enzyme inhibitor complexes can readily be prepared by incubating HPPD preparations with labelled or unlabelled inhibitor and then, after suitable periods, optionally rapidly separating the thus formed enzyme inhibitor complex from excess inhibitor by any suitable method such as ultrafiltration, binding to filters or exchange down a gel filtration column. Exchange reactions with the, thus prepared enzyme inhibitor complex is then initiated by addition of, as appropriate, excess labelled or unlabelled inhibitor. HPPD preparations suitable for use in the methods of the current invention are relatively unpurified, buffer-exchanged, supernatant fractions of spun crude lysates of E. coli strains engineered to express the HPPD enzyme of interest at a level of, typically, about 0.25-10% of the total soluble protein. Many methods such as radiometric, fluorimetric, NMR, fluorescence depolarisation, EPR, Mossbauer, UV/VIS spectrophotometry etc. or phonon resonance can, in principle, be used to monitor the enzyme/ligand exchange reactions and, particularly in this case where the enzyme contains an iron atom at the ligand binding site. Optionally, the monitoring method may be continuous (as, for example, with scintillation proximity/bead-based methods) or, discontinuous, based upon collection of data at various timepoints wherein samples are removed and the bound and unbound label components rapidly separated and quantitated.
(§2) Values of koff can suitably be calculated by computer fitting based upon is numerical integration of the exchange data along with information on the active-site concentration of HPPD and upon kon values obtained as described below. […] In any event, koff values are always here calculated from the rate of the major slow exchange reaction. It will be appreciated that within the scope of the current invention many methods of making the desired kinetic comparisons are possible without explicit or rigorous determination of off rates but, based upon the same underlying principle, will achieve the same selection result.
The dissociation rates (off rates) of inhibitors selected from Formula 1 and/or 2 and/or 3 and/or 4 from the complexes that they form with test and control HPPD enzymes are suitably measured in a number of ways. Thus, for example, the rates of dissociation of mesotrione, a compound selected from Formula 1 and of the diketonitrile of isoxaflutole, a compound selected from Formula 3 from their respective complexes with, test, wheat HPPD and with, control, Arabidopsis HPPD are compared. The method and results from a typical test are as follows.
^14C mesotrione is of specific activity 1.12 GBq/mmol. This is ˜95% pure radiochemically by TLC and based upon the proportion of material tight-binding to HPPD. Arabidopsis and, (test), wheat HPPD are each diluted to a concentration of ˜0.45 and 0.54 μM, respectively into 1.6 ml of 50 mM Bis-Tris propane buffer at pH 7.0 containing 25% glycerol, 25 mM sodium ascorbate and 3 mg/l of bovine catalase (Sigma C3155˜50,000 units/mg) containing […] ^14C mesotrione and left to react at 25 C for 2.5-3 h. Following this initial binding reaction, exchange reactions are initiated by addition of cold mesotrione to a final concentration of 60 μM and 200 μl aliquots removed at various times to rapid chromatography down a NAP5 gel filtration column equilibrated in 50 mM BTP at pH 7 containing 0.1 M KCl, separation into fractions containing protein-bound or free radiolabel and liquid scintillation counting. […]

For assay [1], the target named is T1, Arabidopsis HPPD (Arabidopsis thaliana, UniProt P93836).
T1 construct: made in house; host or cells: E. coli BL21 (DE3) codon+ RP
T1 sequence (P93836 1-445): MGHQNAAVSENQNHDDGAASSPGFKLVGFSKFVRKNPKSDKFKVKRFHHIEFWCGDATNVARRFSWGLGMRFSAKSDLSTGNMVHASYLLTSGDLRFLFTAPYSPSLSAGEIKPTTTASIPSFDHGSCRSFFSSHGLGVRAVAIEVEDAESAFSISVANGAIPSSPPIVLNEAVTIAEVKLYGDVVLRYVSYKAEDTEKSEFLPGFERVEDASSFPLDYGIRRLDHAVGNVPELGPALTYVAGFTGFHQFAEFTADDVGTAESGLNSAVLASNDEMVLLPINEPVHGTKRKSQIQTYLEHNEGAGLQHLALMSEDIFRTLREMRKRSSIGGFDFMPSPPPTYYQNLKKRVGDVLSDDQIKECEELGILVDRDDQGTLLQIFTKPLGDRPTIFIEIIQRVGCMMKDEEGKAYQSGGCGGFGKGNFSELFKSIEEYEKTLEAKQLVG
The assay is described as above. In kind it is binding. As to conditions: for koff: − glycerol. How it is done: as §1, with “It” for “Herbicidal inhibitors of HPPD are found here to have generally low values of koff (in the range less than 0.0003 s^−1, often less than 0.000001 s^−1). It”, “HPPD preparations suitable for use in the methods of the current invention are relatively unpurified, buffer-exchanged, supernatant fractions of spun crude lysates of E. coli strains engineered to express the HPPD enzyme of interest at a level of, typically, about 0.25-10% of the total soluble protein.” left out
Values of koff can suitably be calculated by computer fitting based upon is numerical integration of the exchange data along with information on the active-site concentration of HPPD and upon kon values obtained as described below. […] In any event, koff values are always here calculated from the rate of the major slow exchange reaction.
^14C mesotrione is of specific activity 1.12 GBq/mmol. […] Following this initial binding reaction, exchange reactions are initiated by addition of cold mesotrione to a final concentration of 60 μM and 200 μl aliquots removed at various times to rapid chromatography down a NAP5 gel filtration column equilibrated in 50 mM BTP at pH 7 containing 0.1 M KCl, separation into fractions containing protein-bound or free radiolabel and liquid scintillation counting.
Nevertheless, here, for practical purposes, koff values are always here calculated from the rate of the major slow exchange reaction.
Not all test inhibitors are readily available in a radiolabelled form.

A further assay deals with P. fluorescens HPPD (Pseudomonas fluorescens, UniProt A0ACG8AE61). The assay is described as above. In kind it is binding.
Excerpt: as §1
as §2, with “result. […]” for “result.”
Not all test inhibitors are readily available in a radiolabelled form. A more general method of measuring off rates is to first form the complex with unlabelled test inhibitor, to rapidly exchange the complex free of excess unlabelled inhibitor and to then start the exchange reaction by addition of an excess of a standard labelled inhibitor, the kinetic properties of which are already known. The reaction is then monitored and the relative proportions of bound and unbound label determined at various times. […] The latter is the method of choice when the rate of exchange is fast (t½<3 h).
In, variants of the above methods, off rates are measured either in the presence or absence of ˜25% v/v glycerol. In the presence of glycerol values obtained are generally ˜1.5-3× slower than in its absence although sometimes the change is outside this range or, even, in the other direction. Further examples of data obtained are depicted in the following Table 3.
Crude Extracts of recombinant E. coli strains expressing, in the one case, a control HPPD (from Arabidopsis) and, in the other, one or more test HPPD sequences are prepared as described in the preceding example. The titre of active sites and enzyme activity are also defined and measured as described in the preceding examples. […]

The target in assay [2] is T1, Arabidopsis HPPD. In words: Inhibition of HPPD (E. coli extract) after pre-incubation with inhibitor. In kind it is biochemical. To be noted: read-out: inhibition (relative to controls). On the procedure:
(§3) Qualitative measurements of the differences in Kd values in respect of different HPPD inhibitors are obtained by pre-incubating enzyme with inhibitor and, then, subsequently, measuring the % inhibition. For example HPPD is isolated from maize seedlings, part purified and assayed by similar methods to those described by Schulz et al 1993 (FEBS LETS. 318, 162-166) and by Secor (1994) in Plant Physiol. 106, 1429-1433. Assays are run for 30 minutes and started with addition of radiolabelled hydroxyphenylpyruvate (final concentration ˜0.1-0.2 mM) following a 20-30 min period over which inhibitor is pre-incubated with the part-purified enzyme.
Using the same assay method but using HPPD from Arabidopis (obtained from E. coli cells transformed to express the Arabidopsis HPPD and prepared as an E. coli extract similar to the methods described by Garcia et al in Plant Physiol (1999) 119, 1507-1516) the following levels of inhibition (relative to controls) are observed with the following doses of herbicide versus Arabidopsis HPPD.

The subject of the next assay is maize HPPD. In words: Inhibition of part purified HPPD after pre-incubation with inhibitor. In kind it is biochemical. On the procedure: as §3
The following levels of inhibition (relative to controls) are observed with the following doses of herbicide versus maize HPPD

Where [3] appears, read: value obtained + glycerol (in parentheses), read-out: Kd.
Where [4] appears, read: without glycerol, Kd = koff/kon, read-out: Kd.
Setting [5] is: Kd, without glycerol, Kd = koff/kon.

Wheat HPPD, sequence (A0A3B6NLC6 entry or part of it): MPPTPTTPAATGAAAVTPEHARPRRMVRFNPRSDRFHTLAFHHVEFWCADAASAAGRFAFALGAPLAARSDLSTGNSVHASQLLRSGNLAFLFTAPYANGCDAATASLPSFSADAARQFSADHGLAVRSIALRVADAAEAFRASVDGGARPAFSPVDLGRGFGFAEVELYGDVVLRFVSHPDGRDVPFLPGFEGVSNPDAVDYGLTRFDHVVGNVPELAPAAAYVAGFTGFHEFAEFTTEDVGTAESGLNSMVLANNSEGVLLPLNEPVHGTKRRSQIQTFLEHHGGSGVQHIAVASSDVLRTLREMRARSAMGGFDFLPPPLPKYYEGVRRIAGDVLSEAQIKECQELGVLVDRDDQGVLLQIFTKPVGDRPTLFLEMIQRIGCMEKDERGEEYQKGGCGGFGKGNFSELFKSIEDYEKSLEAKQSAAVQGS
P. fluorescens HPPD, sequence (A0ACG8AE61 entry or part of it): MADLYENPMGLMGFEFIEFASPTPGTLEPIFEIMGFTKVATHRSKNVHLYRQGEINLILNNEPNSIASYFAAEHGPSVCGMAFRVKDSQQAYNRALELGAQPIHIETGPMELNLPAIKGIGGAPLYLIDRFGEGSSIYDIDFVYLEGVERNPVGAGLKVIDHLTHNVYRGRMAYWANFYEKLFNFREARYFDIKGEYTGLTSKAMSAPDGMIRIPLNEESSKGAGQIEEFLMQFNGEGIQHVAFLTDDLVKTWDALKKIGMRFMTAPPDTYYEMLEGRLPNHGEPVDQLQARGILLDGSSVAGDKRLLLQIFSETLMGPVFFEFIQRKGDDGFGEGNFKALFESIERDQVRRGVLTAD

For orientation: koff means the rate constant with which the complex falls apart. With `CCOCc1nc(C(F)(F)F)ccc1C(=O)C1C(=O)C2CCC(C2)C1=O` (stereo not shown) [Structure III, 3-[[2-(ethoxymethyl)-6-(trifluoromethyl)-3-pyridinyl]carbonyl]-bicyclo[3.2.1]-octane-2,4-dione], the koff was over 0.0002 s⁻¹ at Wheat HPPD (read-out: koff) and 1.1e-05 s⁻¹ at Arabidopsis HPPD [1].

By Kd is commonly meant the equilibrium constant for the complex coming apart. The term inhibition denotes the percentage by which the read-out fell short of the control. For the compound `CS(=O)(=O)c1cc(C(F)(F)F)ccc1C(=O)C(C#N)C(=O)C1CC1` (stereo not shown) [Structure IV, 1-[2-(methanesulfonyl)-4-(trifluoromethyl)phenyl]-3-cyclopropyl-2-cyano-propane-1,3-dione, reference compound], the Kd on Wheat HPPD (setting [3]) stood at 0.596 nM; on Wheat HPPD (setting [4]) it was 0.885 nM; at P. fluorescens HPPD (in water at pH 7.0 and at 25 C, read-out: dissociation constant (Kd)), 12.2 nM; at P. fluorescens HPPD (setting [3]) it was 1.1 nM; on P. fluorescens HPPD (setting [4]), 12.2 nM. Moreover, the inhibition at 0.001 µM at Arabidopsis HPPD [2] (1 nM) was 20%. Moreover, the inhibition at 0.01 µM on Arabidopsis HPPD [2] (10 nM) was 90%. The inhibition at 0.1 µM at Arabidopsis HPPD [2] (100 nM) came out at 95%. For the same compound, the inhibition at 1 µM at Arabidopsis HPPD [2] (1000 nM) amounted to 95%.

For `Cc1cc(C#N)ccc1C(=O)C1C(=O)C(C)(C)C(=O)C(C)(C)C1=O` [Structure VI, 2-[2-methyl-4-cyanobenzoyl]-4,4,6,6-tetramethylcyclohexane-1,3,5-trione], the values for the Kd at Wheat HPPD (setting [5]), at P. fluorescens HPPD (setting [4]) and on Arabidopsis HPPD [1] were 0.45 nM, over 20 nM and 0.025 nM, respectively.

Regarding `Cc1nc(C(F)(F)F)ccc1C(=O)C1C(=O)C(C)(C)C(=O)C(C)(C)C1=O` [Structure VII, 3-[[2-methyl-6-(trifluoromethyl)-3-pyridinyl]carbonyl]-4,4,6,6-tetramethylcyclohexane-1,3,5-trione], the Kd worked out at 0.175 nM at Wheat HPPD (setting [5]) and 0.032 nM on Arabidopsis HPPD [1]. The koff on Wheat HPPD is 8.3e-06 s⁻¹; on P. fluorescens HPPD (− glycerol), over 0.0003 s⁻¹; at Arabidopsis HPPD [1], 1e-06 s⁻¹.

For `CCC1CC(=O)C(C(=O)C2CC2)C(=O)C1(C)S(C)(=O)=O` (stereo not shown) [Structure VIII, 2-[cyclopropylcarbonyl]-5-ethyl-4-methanesulfonyl-4-methylcyclohexane-1,3-dione], the “strength of inhibition” value at Arabidopsis HPPD [1] (used for pre-incubation in control experiments) is “weak inhibitor”.

With `CS(=O)(=O)c1ccc(C(=O)C2C(=O)CCCC2=O)c(Cl)c1` [sulcotrione, 2-(2-Chloro-4-methanesulphonylbenzoyl)-cyclohexane-1,3-dione], the “fold less active against the maize enzyme than structure IV” value in the assay on maize HPPD is about 100 fold. In the assay with maize HPPD (10 nM), the “inhibition (relative to controls)” value amounted to 8%. In addition, the “inhibition (relative to controls)” value in the assay with maize HPPD (100 nM) was determined as 51%. Moreover, the “inhibition (relative to controls)” value in the assay on maize HPPD (1000 nM) is on record as 83%. In addition, on Arabidopsis HPPD [2], the inhibition at 0.001 µM was found to be 57%, the inhibition at 0.01 µM was determined as 96%, the inhibition at 0.1 µM was 100% and the inhibition at 1 µM was 100%.
